Measured values reported in patent publication US6867207B2, “IL-5 inhibiting 6-azauracil derivatives” (Janssen Pharmaceutica N.V., priority 1997, dated 2005).

Columns and labels:
IL-5 production = assay: In vitro inhibition of IL-5 production in human blood (phytohemagglutinin-stimulated whole blood, ELISA);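 on all read-outs here: values marked with an asterisk were tested at 10 µM and unmarked values at 1 µM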; type: cell-based; settings: test dose 1×10^−6 M, 48 hours; for inhibition at 1 µM: read-out: % inh. (percentage inhibition of IL-5 production)
Outline: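 Heparinised blood from healthy male donors, diluted threefold in RPMI 1640, preincubated 60 min at 37° C with compound (0.02% DMSO vehicle), then stimulated with 2 μg/mL phytohemagglutinin for 48 h. Supernatant IL-5 measured by ELISA; percentage inhibition at 1×10^−6 M or 1×10^−5 M.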

O=c1cnn(-c2ccc(C(c3ccc(Cl)cc3)c3nc(-c4ccccc4)cs3)c(Cl)c2)c(=O)[nH]1 (racemic) [Compound 419, (±)-2-[3-chloro-4-[(4-chlorophenyl)(4-phenyl-2-thiazolyl)methyl]phenyl]-1,2,4-triazine-3,5(2H,4H)-dione]
inhibition at 1 µM (IL-5 production): 5%
melting point: 90 °C

CN(C)Cc1sc(C(c2ccc(Cl)cc2)c2c(Cl)cc(-n3ncc(=O)[nH]c3=O)cc2Cl)nc1-c1ccccc1F (racemic) [Compound 325, (±)-2-[4-[(4-chlorophenyl)[5-[(dimethylamino)methyl]-4-(2-fluorophenyl)-2-thiazolyl]methyl]-3,5-dichlorophenyl]-1,2,4-triazine-3,5(2H,4H)-dione]
inhibition at 1 µM (IL-5 production): 95%
melting point: 250 °C

O=C(O)c1sc(C(c2ccc(Cl)cc2)c2c(Cl)cc(-n3ncc(=O)[nH]c3=O)cc2Cl)nc1-c1ccccc1 (racemic) [Compound 299, (±)-2-[(4-chlorophenyl)[2,6-dichloro-4-(4,5-dihydro-3,5-dioxo-1,2,4-triazin-2(3H)-yl)phenyl]-methyl]-4-phenyl-5-thiazolcarboxylic acid]
inhibition at 1 µM (IL-5 production): 38%
melting point: 206 °C

O=c1cnn(-c2cc(Cl)c(C(c3ccc(Cl)cc3)c3nc(-c4ccccc4)no3)c(Cl)c2)c(=O)[nH]1 (racemic) [Compound 429, (±)-2-[3,5-dichloro-4-[(4-chlorophenyl)(3-phenyl-1,2,4-oxadiazol-5-yl)methyl]phenyl]-1,2,4-triazin-3,5(2H,4H)-dione]
inhibition at 1 µM (IL-5 production): 78%
melting point: 128 °C

CN(C)C(=O)c1sc(C(c2ccc(Cl)cc2)c2c(Cl)cc(-n3ncc(=O)[nH]c3=O)cc2Cl)nc1-c1ccccc1 (racemic) [Compound 303, (±)-N,N-dimethyl-2-[(4-chlorophenyl)[2,6-dichloro-4-(4,5-dihydro-3,5-dioxo-1,2,4-triazin-2(3H)-yl)phenyl]methyl]-4-phenylthiazol-5-carboxamide]
inhibition at 1 µM (IL-5 production): 85%
melting point: 150 °C

NCc1sc(C(c2ccc(Cl)cc2)c2c(Cl)cc(-n3ncc(=O)[nH]c3=O)cc2Cl)nc1-c1ccccc1 (racemic) [Compound 329, (±)-2-[4-[[5-(aminomethyl)-4-phenyl-2-thiazolyl](4-chlorophenyl)methyl]-3,5-dichlorophenyl]-1,2,4-triazine-3,5(2H,4H)-dione]
inhibition at 1 µM (IL-5 production): 88%
melting point: 170 °C

O=C(CO)Nc1ccccc1-c1nnc(C(c2ccc(Cl)cc2)c2c(Cl)cc(-n3ncc(=O)[nH]c3=O)cc2Cl)o1 (racemic) [Compound 213, (±)-N-[2-[5-[(4-chlorophenyl)[2,6-dichloro-4-(4,5-dihydro-3,5-dioxo-1,2,4-triazin-2(3H)-yl)phenyl]methyl]-1,3,4-oxadiazol-2-yl]phenyl]-2-hydroxyacetamide]
inhibition at 1 µM (IL-5 production): 32%
melting point: 235 °C

CN1CCC(N(C)Cc2sc(C(c3ccc(Cl)cc3)c3c(Cl)cc(-n4ncc(=O)[nH]c4=O)cc3Cl)nc2-c2ccccc2)CC1 (racemic) [Comp 322]
% inh. (percentage inhibition of IL-5 production) (IL-5 production): 96%

Cn1ccnc1C(c1ccc(Cl)cc1)c1ccc(-n2ncc(=O)[nH]c2=O)cc1Cl (racemic) [Compound 123, (±)-2-[3-chloro-4-[(4-chlorophenyl)(1-methyl-1H-imidazol-2-yl)methyl]phenyl]-1,2,4-triazine-3,5(2H,4H)-dione]
inhibition at 1 µM (IL-5 production): 13%

O=c1cnn(-c2cc(Cl)c(C(Sc3nccc(N4CCOCC4)n3)c3ccc(Cl)cc3)c(Cl)c2)c(=O)[nH]1 (racemic) [Compound 349]
% inh. (percentage inhibition of IL-5 production) (IL-5 production): 87%

Cc1nnc(C(c2ccc(Cl)cc2)c2c(Cl)cc(-n3ncc(=O)[nH]c3=O)cc2Cl)o1 (racemic) [Compound 162]
% inh. (percentage inhibition of IL-5 production) (IL-5 production): 63%

Cc1cc(NC(c2ccc(Cl)cc2)c2ccc(-n3ncc(=O)[nH]c3=O)cc2Cl)no1 (racemic) [Compound 40]
% inh. (percentage inhibition of IL-5 production) (IL-5 production): 31%

O=c1cnn(-c2ccc(C(c3ccc(Cl)cc3)c3cccnc3)c(Cl)c2)c(=O)[nH]1 (racemic) [Compound 124, (±)-2-[3-chloro-4-[(4-chlorophenyl)-3-pyridinylmethyl]phenyl]-1,2,4-triazine-3,5(2H,4H)-dione]
inhibition at 1 µM (IL-5 production): 42%

Cc1cc(C(C)(c2ccc(Cl)c(C(F)(F)F)c2)c2nc(-c3ccccc3)c(C)s2)c(Cl)cc1-n1ncc(=O)[nH]c1=O (racemic) [Comp 238]
% inh. (percentage inhibition of IL-5 production) (IL-5 production): 74%

Cc1sc(NC(c2ccc(Cl)cc2)c2ccc(-n3ncc(=O)[nH]c3=O)cc2Cl)nc1-c1ccccc1 (racemic) [Compound 412]
% inh. (percentage inhibition of IL-5 production) (IL-5 production): 16%

Cc1nc(-c2ccccc2)sc1C(c1ccc(Cl)cc1)c1c(Cl)cc(-n2ncc(=O)[nH]c2=O)cc1Cl (racemic) [Compound 138]
% inh. (percentage inhibition of IL-5 production) (IL-5 production): 81%

Cc1ccoc1-c1nnc(C(c2ccc(Cl)cc2)c2c(Cl)cc(-n3ncc(=O)[nH]c3=O)cc2Cl)o1 (racemic) [Compound 207]
% inh. (percentage inhibition of IL-5 production) (IL-5 production): 94%
